Assay results: patent US7169763B2, “Cytochrome P450 3A inhibitors and enhancers” (priority 2002, dated 2007)

System: CYP3A
Test: Determination of CYP3A activity by erythromycin demethylation method (rat liver homogenate/microsomes)
Set-up: CYP3A Activity (percentage of control): dose or concentration left out as unconfirmed
Details: for inhibitory effects on rat liver CYP3A (in words): summary of Table 1; for enhancing effects on rat hepatic CYP3A (in words): summary of Table 2
[1] = inhibitor concentration 0.004, Table 1 Inhibition
[2] = inhibitor concentration 0.04, Table 1 Inhibition
[3] = inhibitor concentration 0.4, Table 1 Inhibition
[4] = inhibitor concentration 1.55, Table 1 Inhibition
[5] = inhibitor concentration 77.07, Table 1 Inhibition
[6] = inhibitor concentration 0.1, Table 1 Inhibition

Structure (SMILES)	CYP3A Activity (percentage of control) [1]	CYP3A Activity (percentage of control) [2]	CYP3A Activity (percentage of control) [3]	inhibitory effects on rat liver CYP3A (in words)	also measured
Oc1cc(O)c2c(c1)O[C@H](c1ccc(O)c(O)c1)[C@@H](O)C2 (relative stereo) [(+)-catechin, 2R-trans-2-(3,4-dihydroxyphenyl)-3,4-dihydro-2H-1-benopyran-3,5,7-triol]	59.31 ± 2.94 percentage of control	62.70 ± 8.53 percentage of control	45.42 ± 6.13 percentage of control	particularly effective	
CC(=O)OCCCc1ccccc1 [3-phenylpropyl acetate]	60.33 ± 2.18 percentage of control	70.50 ± 0.59 percentage of control	53.89 ± 4.43 percentage of control		
Oc1cc(O)c2c(c1)O[C@@H](c1ccc(O)c(O)c1)[C@@H](O)C2 [(+)-epicatechin]					CYP3A Activity (percentage of control) (inhibitor concentration 0.45, Table 1 Inhibition): 14.66 ± 7.66 percentage of control; CYP3A Activity (percentage of control) (inhibitor concentration 1.41, Table 1 Inhibition): 23.29 ± 5.28 percentage of control; CYP3A Activity (percentage of control) [4]: 27.96 ± 5.07 percentage of control
O=C(O)c1cc(O)c(O)c(O)c1 [Gallic acid]				particularly effective	CYP3A Activity (percentage of control) (inhibitor concentration 4.3, Table 1 Inhibition): 43.86 ± 4.45 percentage of control; CYP3A Activity (percentage of control) (inhibitor concentration 24.66, Table 1 Inhibition): 43.65 ± 0.57 percentage of control; CYP3A Activity (percentage of control) [5]: 44.09 ± 4.39 percentage of control
CC1(C)[C@@H](O[C@H]2O[C@H](C(=O)O)[C@@H](O)[C@H](O)[C@H]2O[C@@H]2O[C@H](C(=O)O)[C@@H](O)[C@H](O)[C@H]2O)CC[C@]2(C)[C@H]3C(=O)C=C4[C@@H]5C[C@@](C)(C(=O)O)CC[C@]5(C)CC[C@@]4(C)[C@]3(C)CC[C@@H]12 [Glycyrrhizin]					CYP3A Activity (percentage of control) (inhibitor concentration 0.269, Table 1 Inhibition): 42.96 ± 3.75 percentage of control
CCCCCCCCCCCCO [Lauryl alcohol]				particularly effective	CYP3A Activity (percentage of control) (inhibitor concentration 739.88, Table 1 Inhibition): 18.58 ± 1.46 percentage of control
O=c1cc(-c2ccc(O)c(O)c2)oc2cc(O)cc(O)c12 [Luteolin]	88.22 ± 0.00 percentage of control	94.10 ± 10.37 percentage of control	106.51 ± 8.16 percentage of control		CYP3A Activity (percentage of control) (inhibitor concentration 1.56, Table 1 Inhibition): 36.32 ± 1.26 percentage of control
O=C1C[C@@H](c2ccc(O)cc2)Oc2cc(O)cc(O)c21 [Nariagenin]	81.63 ± 5.21 percentage of control	62.37 ± 12.33 percentage of control	60.54 ± 15.51 percentage of control		CYP3A Activity (percentage of control) [4]: 47.07 ± 9.87 percentage of control
C[C@@H]1O[C@@H](O[C@H]2[C@H](Oc3cc(O)c4c(c3)O[C@H](c3ccc(O)cc3)CC4=O)O[C@H](CO)[C@@H](O)[C@@H]2O)[C@H](O)[C@H](O)[C@H]1O [Narigin]				particularly effective	CYP3A Activity (percentage of control) (inhibitor concentration 21.67, Table 1 Inhibition): 56.22 ± 22.87 percentage of control
CC(Cc1ccc(O)c(O)c1)C(C)Cc1ccc(O)c(O)c1 (stereo not shown) [Nordihydroguaiaretic Acid]	71.26 ± 1.95 percentage of control	60.28 ± 1.95 percentage of control	42.53 ± 0.49 percentage of control	particularly effective	CYP3A Activity (percentage of control) (inhibitor concentration 3.09, Table 1 Inhibition): 8.96 ± 1.79 percentage of control
CC1(C)CC[C@]2(C(=O)O)CC[C@]3(C)C(=CC[C@@H]4[C@@]5(C)CC[C@H](O)C(C)(C)[C@@H]5CC[C@]43C)[C@@H]2C1 [Oleanolic acid]					CYP3A Activity (percentage of control) (inhibitor concentration 0.522, Table 1 Inhibition): 55.95 ± 4.45 percentage of control; CYP3A Activity (percentage of control) [5]: 44.64 ± 7.92 percentage of control
O=c1cc(-c2ccc(O)cc2)oc2cc(O)cc(O)c12 [apigenin]	52.96 ± 1.15 percentage of control	54.64 ± 5.16 percentage of control			CYP3A Activity (percentage of control) (enhancer concentration 0.22, Table 2 Enhancement): 108.62 ± 1.28 percentage of control; CYP3A Activity (percentage of control) [6]: 59.94 ± 2.50 percentage of control; enhancing effects on rat hepatic CYP3A (in words): particularly effective
O=c1cc(-c2ccccc2)oc2cc(O)c(O)c(O)c12 [baicalein]	84.66 ± 3.04 percentage of control	81.59 ± 4.76 percentage of control			CYP3A Activity (percentage of control) [6]: 64.47 ± 4.75 percentage of control
CC(C)[C@@H](C)/C=C/[C@@H](C)[C@H]1CC[C@H]2C3=CC=C4C[C@@H](O)CC[C@]4(C)[C@H]3CC[C@]12C [ergosterol]	64.59 ± 3.34 percentage of control	63.71 ± 11.57 percentage of control	59.57 ± 5.41 percentage of control		
COc1ccc(-c2coc3cc(O)ccc3c2=O)cc1 [formononetin]	78.78 ± 2.76 percentage of control	92.06 ± 0.77 percentage of control			CYP3A Activity (percentage of control) (enhancer concentration 0.123, Table 2 Enhancement): 113.74 ± 8.87 percentage of control; CYP3A Activity (percentage of control) [6]: 70.37 ± 5.79 percentage of control; enhancing effects on rat hepatic CYP3A (in words): particularly effective
COc1ccc([C@@H]2CC(=O)c3c(O)cc(O)cc3O2)cc1O [hesperetin]	84.66 ± 3.04 percentage of control	75.89 ± 3.31 percentage of control	48.25 ± 4.62 percentage of control	particularly effective	
COc1ccc([C@@H]2CC(=O)c3c(O)cc(O[C@@H]4O[C@H](CO[C@@H]5O[C@@H](C)[C@H](O)[C@@H](O)[C@H]5O)[C@@H](O)[C@H](O)[C@H]4O)cc3O2)cc1O [hesperidin]	24.05 ± 5.06 percentage of control	103.79 ± 6.37 percentage of control	80.75 ± 4.18 percentage of control	particularly effective	
O=c1c(O[C@@H]2O[C@H](CO)[C@@H](O)[C@H](O)[C@H]2O)c(-c2ccc(O)c(O)c2)oc2cc(O)cc(O)c12 [isoquercitrin]	64.62 ± 1.53 percentage of control	66.83 ± 5.03 percentage of control			CYP3A Activity (percentage of control) (inhibitor concentration 0.2, Table 1 Inhibition): 51.46 ± 6.68 percentage of control
